For 4 compounds, Classification results are on record in patent publication US20050282743A1, “Molecular interactions in cells” (Arbor Vita Corporation, priority 2001, published 2005).

Experiment in all cases: G' assay (10 uM PL peptide), results of TABLE 7 and TABLE 12
Holding throughout (format): binding

The target in test [1] is T1, PDZ protein (GST-PDZ fusion) (Homo sapiens, UniProt O75970).
T1 construct: made in house; host or cells: E. coli (DH5alpha, BL21 or JM109)
Summed up: (§1)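 Same steps as the G-zero format, apart from a peptide concentration of 10 uM in place of 20 uM in step 2. Amino-terminally biotinylated PL peptides bind GST-PDZ fusions, and retained peptide is quantified by 450 nm absorbance.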

For test [2], the system named is PDZ protein (GST-PDZ fusion). Summed up:
as §1

The target in test [3] is T2, PDZ protein (GST-PDZ fusion) (Homo sapiens, UniProt Q5TCQ9).
T2 construct: made in house; host or cells: E. coli (DH5alpha, BL21 or JM109)
T2 sequence (Q5TCQ9 1-1481): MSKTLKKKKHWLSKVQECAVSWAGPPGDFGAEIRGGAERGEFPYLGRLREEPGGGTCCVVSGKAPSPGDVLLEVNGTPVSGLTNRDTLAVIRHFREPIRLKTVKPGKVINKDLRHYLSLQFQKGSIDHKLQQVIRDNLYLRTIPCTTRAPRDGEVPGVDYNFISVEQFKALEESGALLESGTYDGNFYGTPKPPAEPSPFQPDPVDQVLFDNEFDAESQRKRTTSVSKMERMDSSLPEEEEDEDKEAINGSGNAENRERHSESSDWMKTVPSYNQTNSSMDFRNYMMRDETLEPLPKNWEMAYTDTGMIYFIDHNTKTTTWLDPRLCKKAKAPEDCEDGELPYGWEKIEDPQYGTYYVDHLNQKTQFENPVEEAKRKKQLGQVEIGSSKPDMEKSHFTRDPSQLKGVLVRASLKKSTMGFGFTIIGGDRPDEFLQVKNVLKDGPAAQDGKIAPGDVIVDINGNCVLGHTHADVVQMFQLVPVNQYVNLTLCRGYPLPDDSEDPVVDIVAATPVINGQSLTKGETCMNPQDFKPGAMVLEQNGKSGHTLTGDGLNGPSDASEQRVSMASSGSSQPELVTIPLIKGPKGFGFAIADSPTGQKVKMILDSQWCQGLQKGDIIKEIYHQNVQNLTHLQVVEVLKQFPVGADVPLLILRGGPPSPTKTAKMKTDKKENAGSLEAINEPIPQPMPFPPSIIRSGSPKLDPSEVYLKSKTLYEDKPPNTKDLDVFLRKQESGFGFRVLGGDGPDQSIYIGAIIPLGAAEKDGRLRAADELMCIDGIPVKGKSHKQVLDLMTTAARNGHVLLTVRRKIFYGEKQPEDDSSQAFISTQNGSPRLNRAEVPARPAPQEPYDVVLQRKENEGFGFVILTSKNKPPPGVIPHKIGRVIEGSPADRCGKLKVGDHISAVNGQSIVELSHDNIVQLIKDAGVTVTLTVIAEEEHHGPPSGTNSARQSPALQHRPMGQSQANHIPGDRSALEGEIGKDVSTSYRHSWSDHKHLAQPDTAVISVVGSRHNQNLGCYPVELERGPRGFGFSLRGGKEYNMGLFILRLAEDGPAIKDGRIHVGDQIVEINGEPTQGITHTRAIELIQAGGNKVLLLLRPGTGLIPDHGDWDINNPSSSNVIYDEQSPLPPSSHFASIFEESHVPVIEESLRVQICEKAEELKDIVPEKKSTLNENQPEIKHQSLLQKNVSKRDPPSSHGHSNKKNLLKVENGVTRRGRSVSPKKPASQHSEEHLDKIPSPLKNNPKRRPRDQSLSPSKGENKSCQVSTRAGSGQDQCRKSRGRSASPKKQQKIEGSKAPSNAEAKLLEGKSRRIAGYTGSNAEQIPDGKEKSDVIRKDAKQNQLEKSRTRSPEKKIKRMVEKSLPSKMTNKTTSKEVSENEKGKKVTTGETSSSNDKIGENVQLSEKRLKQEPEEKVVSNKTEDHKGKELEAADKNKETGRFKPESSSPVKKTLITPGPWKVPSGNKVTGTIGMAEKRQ
The method in brief: as §1

Peptide text beside a SMILES is read from it. * marks the point of attachment. Biotin = O=C1N[C@H]2[C@H](CS[C@H]2CCCCC(=O)*)N1

T1 sequence (O75970 whole entry, the tested form may be a part): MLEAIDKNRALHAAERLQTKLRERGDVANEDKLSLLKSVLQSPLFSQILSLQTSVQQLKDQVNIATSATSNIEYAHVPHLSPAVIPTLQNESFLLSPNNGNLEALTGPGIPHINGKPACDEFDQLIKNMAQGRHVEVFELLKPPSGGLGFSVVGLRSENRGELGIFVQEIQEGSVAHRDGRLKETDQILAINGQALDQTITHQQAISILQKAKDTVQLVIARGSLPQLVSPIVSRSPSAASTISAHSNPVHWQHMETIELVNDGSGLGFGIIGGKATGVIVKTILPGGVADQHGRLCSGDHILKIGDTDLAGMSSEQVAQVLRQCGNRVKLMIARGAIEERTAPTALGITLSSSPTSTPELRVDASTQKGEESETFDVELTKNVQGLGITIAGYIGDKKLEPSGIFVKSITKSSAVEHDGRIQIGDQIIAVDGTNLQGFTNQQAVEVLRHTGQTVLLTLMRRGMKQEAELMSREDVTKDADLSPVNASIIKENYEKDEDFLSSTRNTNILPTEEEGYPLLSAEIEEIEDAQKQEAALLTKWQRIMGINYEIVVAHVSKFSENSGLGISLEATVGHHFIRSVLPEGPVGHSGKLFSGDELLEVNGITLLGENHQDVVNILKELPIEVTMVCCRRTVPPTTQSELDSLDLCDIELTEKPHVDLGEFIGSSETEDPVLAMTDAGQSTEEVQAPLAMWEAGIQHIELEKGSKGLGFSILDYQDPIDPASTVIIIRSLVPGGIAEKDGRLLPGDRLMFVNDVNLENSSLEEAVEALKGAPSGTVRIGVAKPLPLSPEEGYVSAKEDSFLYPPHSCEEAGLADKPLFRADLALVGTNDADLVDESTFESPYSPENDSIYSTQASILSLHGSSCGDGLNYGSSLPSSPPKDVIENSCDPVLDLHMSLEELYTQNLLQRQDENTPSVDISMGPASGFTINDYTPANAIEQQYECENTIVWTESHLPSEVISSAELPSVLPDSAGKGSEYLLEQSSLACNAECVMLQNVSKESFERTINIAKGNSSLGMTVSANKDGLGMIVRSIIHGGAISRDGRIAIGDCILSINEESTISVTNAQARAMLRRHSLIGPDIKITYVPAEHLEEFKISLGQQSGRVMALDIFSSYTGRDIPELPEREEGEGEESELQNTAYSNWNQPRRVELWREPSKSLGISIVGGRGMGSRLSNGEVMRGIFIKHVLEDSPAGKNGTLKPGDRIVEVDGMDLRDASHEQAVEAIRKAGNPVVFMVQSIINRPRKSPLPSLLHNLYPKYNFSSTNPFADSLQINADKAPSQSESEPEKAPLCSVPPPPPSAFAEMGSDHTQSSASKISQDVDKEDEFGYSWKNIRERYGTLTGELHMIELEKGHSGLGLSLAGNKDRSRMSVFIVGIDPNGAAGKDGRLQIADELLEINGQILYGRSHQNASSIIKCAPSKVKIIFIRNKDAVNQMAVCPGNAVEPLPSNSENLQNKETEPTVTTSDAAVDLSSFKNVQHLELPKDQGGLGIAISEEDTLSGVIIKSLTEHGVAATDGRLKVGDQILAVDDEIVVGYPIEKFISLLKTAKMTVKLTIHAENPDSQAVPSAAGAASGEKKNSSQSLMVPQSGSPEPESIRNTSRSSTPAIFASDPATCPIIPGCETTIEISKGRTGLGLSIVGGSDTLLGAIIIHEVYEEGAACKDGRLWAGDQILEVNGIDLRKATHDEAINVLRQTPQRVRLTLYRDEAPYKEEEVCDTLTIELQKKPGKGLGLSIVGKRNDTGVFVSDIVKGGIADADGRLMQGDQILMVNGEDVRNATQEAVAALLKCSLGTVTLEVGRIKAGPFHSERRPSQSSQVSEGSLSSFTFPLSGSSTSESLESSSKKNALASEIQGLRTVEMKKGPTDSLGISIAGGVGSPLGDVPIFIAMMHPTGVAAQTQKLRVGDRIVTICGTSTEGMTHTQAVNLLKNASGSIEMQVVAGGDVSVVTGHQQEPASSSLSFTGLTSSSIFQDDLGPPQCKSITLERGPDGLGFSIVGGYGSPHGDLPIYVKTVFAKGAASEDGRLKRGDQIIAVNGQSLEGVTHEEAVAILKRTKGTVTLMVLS

In the case of `CC[C@H](C)[C@H](NC(=O)[C@H](CO)NC(=O)[C@@H](NC(=O)[C@H](Cc1ccccc1)NC(=O)[C@H](CO)NC(=O)CCCC[C@@H]1SC[C@@H]2NC(=O)N[C@@H]21)[C@@H](C)O)C(=O)N[C@@H](CC(C)C)C(=O)N[C@H](C(=O)N[C@@H](CS)C(=O)N[C@@H](Cc1c[nH]cn1)C(=O)N[C@@H](CCC(N)=O)C(=O)N[C@@H](CCCNC(=N)N)C(=O)N[C@@H](CCCNC(=N)N)C(=O)N[C@H](C(=O)N[C@@H](CCC(N)=O)C(=O)N[C@@H](CCCNC(=N)N)C(=O)N[C@@H](CCCCN)C(=O)N[C@@H](CCC(=O)O)C(=O)N[C@H](C(=O)N[C@H](C(=O)N[C@@H](C)C(=O)O)C(C)C)[C@@H](C)O)[C@@H](C)O)[C@@H](C)O` [GluR5-2 (rat)], the Classification in test [1] (PDZ MUPP-1, PDZ Domain 10) is given as 2 (A450 nm 1-2); in test [1] (PDZ MUPP-1, PDZ Domain 11), 1 (A450 nm 0-1); in test [2] (PDZ BAI-1, PDZ Domain 2), 5 (A450 nm of 4 more than 2× repeated); in test [3] (PDZ KIAA1634, PDZ Domain 1), 5 (A450 nm of 4 more than 2× repeated).

Consider `CC(C)C[C@H](NC(=O)[C@H](C)NC(=O)[C@@H](NC(=O)[C@H](CCC(=O)O)NC(=O)[C@H](CCCNC(=N)N)NC(=O)[C@H](CCCNC(=N)N)NC(=O)CNC(=O)[C@H](CCC(N)=O)NC(=O)[C@H](CC(C)C)NC(=O)[C@H](CCCNC(=N)N)NC(=O)CNC(=O)CNC(=O)[C@H](CCCNC(=N)N)NC(=O)[C@H](C)NC(=O)[C@H](CO)NC(=O)[C@H](CCCNC(=N)N)NC(=O)CNC(=O)CNC(=O)[C@H](C)NC(=O)[C@H](C)NC(=O)CCCC[C@@H]1SC[C@@H]2NC(=O)N[C@@H]21)[C@@H](C)O)C(=O)O` [HPV E6 33 (modified)] (Biotin-AAGGRSARGGRLQGRRETAL-OH; C-terminus assumed), for which the Classification in test [1] (PDZ MUPP-1, PDZ Domain 13) is given as 2 (A450 nm 1-2); in test [2] (PDZ BAI-1, PDZ Domain 2), 5 (A450 nm of 4 more than 2× repeated); in test [2] (PDZ BAI-1, PDZ Domain 5) it was 1 (A450 nm 0-1); in test [2] (PDZ BAI-1, PDZ Domain 6), 1 (A450 nm 0-1); in test [2] (PDZ FLJ 00011, PDZ Domain 1), 1 (A450 nm 0-1); in test [2] (PDZ SHANK, PDZ Domain 1), 4 (A450 nm 3-4). Further, the Classification in test [3] (PDZ KIAA1634, PDZ Domain 1) is 5 (A450 nm of 4 more than 2× repeated).

On to `CC[C@H](C)[C@H](NC(=O)[C@H](CC(=O)O)NC(=O)[C@H](CCC(=O)O)NC(=O)[C@H](CCCNC(=N)N)NC(=O)[C@@H](NC(=O)CCCC[C@@H]1SC[C@@H]2NC(=O)N[C@@H]21)[C@@H](C)O)C(=O)N[C@@H](Cc1ccc(O)cc1)C(=O)N[C@H](C(=O)N[C@@H](CC(N)=O)C(=O)N[C@@H](Cc1ccc(O)cc1)C(=O)N1CCC[C@H]1C(=O)N[C@H](C(=O)N[C@@H](Cc1ccccc1)C(=O)N[C@@H](CO)C(=O)N[C@@H](CCCNC(=N)N)C(=O)N[C@@H](CCCNC(=N)N)C(=O)N1CCC[C@H]1C(=O)N[C@@H](CCCCN)C(=O)N[C@H](C(=O)N[C@@H](CCCNC(=N)N)C(=O)N[C@H](C(=O)O)C(C)C)[C@@H](C)O)[C@@H](C)O)C(C)C` [DNAM-1] (Biotin-TREDIYVNYPTFSRRPKTRV-OH; C-terminus assumed), for which the Classification was 4 (A450 nm 3-4) in test [1] (PDZ MUPP-1, PDZ Domain 10); 5 (A450 nm of 4 more than 2× repeated) in test [2] (PDZ BAI-1, PDZ Domain 2); 5 (A450 nm of 4 more than 2× repeated) in test [3] (PDZ KIAA1634, PDZ Domain 1).

With “APC—adenomatous polyposis coli protein (ESSGTQSPKRHSGSYLVTSV)”, the Classification in test [1] (PDZ MUPP-1, PDZ Domain 10) was 1 (A450 nm 0-1); in test [2] (PDZ BAI-1, PDZ Domain 2) it was 1 (A450 nm 0-1); in test [2] (PDZ BAI-1, PDZ Domain 5), 1 (A450 nm 0-1); in test [2] (PDZ FLJ 00011, PDZ Domain 1), 1 (A450 nm 0-1); in test [3] (PDZ KIAA1634, PDZ Domain 1), 1 (A450 nm 0-1); in test [3] (PDZ KIAA1634, PDZ Domain 2), 1 (A450 nm 0-1).
